Results reported in PubChem BioAssay AID179 (DTP/NCI, 2004).
The source made the active and inactive calls.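 Rule for the calls: active = compounds giving half or more protection of infected cells from virus-caused growth loss, again on retest; inactive = the rest.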 Where a SMILES comes first, the peptide text is derived from it. Bridges are numbered along the chain shown (N, C = ends). [ ]: non-standard residue; d: D form. The star is where a group is joined. ξ: configuration not given here. X19 = O=C(OCc1ccccc1)[C@H]1CCC[C@H]1N*; ξW = NC(Cc1c[nH]c2ccccc12)C(=O)O; ξF = NC(Cc1ccccc1)C(=O)O; Cbz = O=C(OCc1ccccc1)*; Boc = CC(C)(C)OC(=O)*; ξK = NCCCCC(N)C(=O)O; ξT = CC(O)C(N)C(=O)O; tBu = CC(C)(C)*

System: CEM cells HIV-1 protection, formazan growth assay
Experiment: NCI AIDS Antiviral Assay
Conditions: for IC50: measured here: growth of uninfected CEM cells
Outline: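 Protection of CEM cells against HIV-1 was scored from cell growth (soluble formazan) across five concentrations, with parallel uninfected cells. Lack of protection may reflect toxicity.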

SMILES	EC50 [µM]	IC50 [µM]	outcome
ON(Cc1ccccc1)C(=S)c1ccccc1	> 5.37	0.372	–
CC(CO)/[N+]([O-])=N/O (stereo not drawn)	> 479	–	–
CC(OC(C)(C)C)C(NC(=O)C(CCCCNC(=O)OC(C)(C)C)NC(=O)C(Cc1c[nH]c2ccccc12)NC(=O)C(Cc1ccccc1)NC(=O)OCc1ccccc1)C(=O)NC(Cc1ccccc1)C(=O)N[C@@H]1CCC[C@@H]1C(=O)OCc1ccccc1 (stereo partly drawn) (Cbz-[ξF][ξW][ξK](Boc)[ξT](tBu)[ξF]-X19)	–	–	inactive
O=C1C2=Cc3ccccc3OC2(O)Oc2cc(O)ccc21 (stereo not drawn)	> 200	49	–
CC(C)(C)c1ccccc1NS(=O)(=O)c1ccccc1	–	–	inactive
Cc1ccc(-c2c(C#N)c(-c3ccc(C)cc3)n(NS(=O)(=O)c3ccccc3)c(=O)c2C#N)cc1	> 200	22.9	–
O=C(O)c1ccccc1NC(=O)C1CCCCC1	–	–	inactive
Cn1c(=O)n(C2(C)CSC2)c2ccccc21	> 562	178	–
CCOc1cnn(-c2ccccc2)c(=O)c1SCc1ccccc1	> 77.6	56.2	–
Cc1nc2cccc(F)c2c(=O)n1C1CCCCNC1=O (stereo not drawn)	> 200	> 200	–
C1=Nc2ccc(cc2)N=Cc2ccccc2OCc2cccc(n2)COc2ccccc21	> 200	> 200	–
O=S1c2ccccc2N=C(c2ccc3ccccc3c2)CC1C1=CC=CCC1 (stereo not drawn)	> 18.6	> 18.6	–
CC1(C)CCCOc2cccc(c2)OCCCC(C)(C)C1=O	> 200	> 200	–
Cc1[nH]c(=O)[nH]c(=O)c1/C=C/C(=O)NC(CO)CS(=O)Cc1ccccc1 (stereo not drawn)	> 200	> 200	–
COC(=O)CCc1c(Cc2ccc[nH]2)[nH]c(C(=O)OCc2ccccc2)c1C	> 200	30.9	–
CCCCCCN(CCCCCC)C(F)(F)C(=O)Nc1ccc(S(=O)(=O)c2ccc(NC(=O)C(F)(F)N(CCCCCC)CCCCCC)cc2)cc1	> 100	5.13	–
COC(=O)C1(C(=O)OC)CCCC2=NOC3CCC1C23 (stereo not drawn)	> 891	575	–
CC[C@H]1CN2CCc3cc(OC)c(OC)cc3[C@@H]2C[C@@H]1C[C@H]1NCCc2cc(O)c(OC)cc21	–	–	inactive
O=S1(=O)NCNc2cc(C(F)(F)F)ccc21	> 1000	380	–
Cc1cc(S(=O)(=O)Nc2n[nH]c(N)n2)c(Cl)cc1Cl	> 200	> 200	–
C1CN(C23OC4(N5CCOCC5)C5C6CC(C7C6C4C72)C53)CCO1 (stereo not drawn)	> 200	> 200	–

SMILES	EC50 [µM]	IC50 [µM]	outcome
CCCOC(=O)Nc1ccc2c(c1)c1c3[nH]c(=O)c4cccn4c3ccc1n2CC	> 200	> 200	–
CC[n+]1[b-](C(C)(C)C)n(/N=C/C(C)(C)C)[b-](C(C)(C)C)[n+]1CC	> 200	> 200	–
Cc1ccc2nsnc2c1[N+](=O)[O-]	> 257	> 257	–
CSC1=NN(c2ccccc2)C(=O)C1=C(SC)SC	> 200	25.1	–
CNC(=S)/C(C#N)=C(\N)N1CCN(C)CC1	> 200	> 200	–
c1ccc(-c2ccnc3c2ccc2c(-c4ccccc4)ccnc23)cc1	> 21.9	11.5	–
CCOC(=O)C(=Cc1ccc(C(=O)OC)cc1)C(=O)OCC	> 85.1	12.6	–
CCC(=O)N1C(=O)C(C)C23c4cc(OC)c(OC)cc4C(=O)N2CCCN13 (stereo not drawn)	> 240	> 240	–
CCOC(=O)c1ccc(-n2[nH]c(=O)ccc2=O)cc1	> 191	> 191	–
CN(C(=O)/C=C/c1ccccc1)C1C2CN3CCC(O2)C13 (stereo not drawn)	–	–	inactive
COc1ccc(CCN(C)CCCC(C#N)(c2ccc(OC)c(OC)c2)C(C)C)cc1OC (stereo not drawn)	> 200	> 200	–
CC#N.CC#N.COC(=O)[C@@H]1CN(C(=O)Cc2ccccc2)C(=O)[N-]1.COC(=O)[C@@H]1CN(C(=O)Cc2ccccc2)C(=O)[N-]1.COC(=O)[C@@H]1CN(C(=O)Cc2ccccc2)C(=O)[N-]1.COC(=O)[C@@H]1CN(C(=O)Cc2ccccc2)C(=O)[N-]1.[Rh+2].[Rh+2]	> 12	11	–
[N-]=[N+]=CC(=O)c1ccccc1C#CCCc1ccccc1	46.8	67.6	–
O=c1c(OS(=O)(=O)O)c(-c2ccc(OS(=O)(=O)O)cc2OS(=O)(=O)O)oc2cc(OS(=O)(=O)O)cc(OS(=O)(=O)O)c12	> 100	> 100	–
CCOC(=O)CC(=O)Nc1cccc2[nH]cnc12	> 200	> 200	–
CC(C)C(Sc1nc(-c2ccccc2)c(-c2ccccc2)[nH]1)C(=O)NN (stereo not drawn)	> 10.2	4.9	–
COc1ccc(CCc2cc(OC)c(O)c(OC)c2)cc1	> 200	10.5	–
CCc1c(Cc2cc(C)cc(C)c2)n(COCCCCOC(=O)c2ccccc2)c(=O)[nH]c1=O	0.00692	2	–
CCN(CC)CC(C)(C)C(=O)/C=C/c1ccc(Cl)cc1	> 200	7.24	–
CCCCC[C@H](O)[C@H](C)C=C1SCCCS1	> 200	97.7	–
CCCC(NCCCCCCNC(CCC)C(=O)O)C(=O)O (stereo not drawn)	> 525	> 525	–

SMILES	EC50 [µM]	IC50 [µM]	outcome
Cc1ccc(S(=O)OCC23CC4CC(CC(C4)C2)C3)cc1 (stereo not drawn)	–	–	inactive
CSc1ncnc2nc(C(O)c3ccccc3)[nH]c12 (stereo not drawn)	–	–	inactive
O=C1C2C3C=CC(C3)C2C2C3C=CC(C3)C12 (stereo not drawn)	> 324	> 324	–
CS(=O)(=O)NNS(=O)(=O)c1cccc([N+](=O)[O-])c1	> 617	> 617	–
N#CC1(Cc2ccc(N)cc2)c2ccccc2C=CN1C(=O)c1ccccc1 (stereo not drawn)	–	–	inactive
CN(C)c1ccc(/C=N/n2c(-c3ccccc3)nc3ccccc3c2=O)cc1	> 200	33.9	–
C=C1CC(COc2ccc3c(C)cc(=O)oc3c2)(c2ccccc2)OC1=O (stereo not drawn)	> 200	0.603	–
C(=N/NC1=NCCN1)/c1c2ccccc2c(/C=N\NC2=NCCN2)c2ccccc12	> 1.07	0.0363	–
CCCCCCn1c(SCC)c2ccccc2c1-c1nc(F)nc(F)n1	> 2.75	> 2.75	–
O=C(CNC(=O)Nc1ccc(NC(=O)NCC(=O)Nc2ccc(C3=NCCN3)cc2)cc1)Nc1ccc(C2=NCCN2)cc1	81.3	> 200	–
O=[N+]([O-])c1ccc(C2CC(c3ccccc3Cl)=Nc3ccccc3S2=O)cc1 (stereo not drawn)	> 4.9	> 4.9	–
CN1CCN(Cc2cc3c(nn2)-c2ccccc2C3=O)CC1	> 200	110	–
CN(C)c1ccc(/C=C2\Oc3cc(O)ccc3C2=O)cc1	> 200	45.7	–
CCOc1ccc2nc(NC(=O)c3c/c(=N\NC(=O)C[N+](C)(C)C)c4ccc(O)cc4o3)sc2c1	> 178	2.24	–
Clc1nncc2sc(-c3ccccc3)nc12	> 151	8.32	–
CCOC(=O)c1c(N2CCCC2)nsc1Nc1ccc(F)cc1	> 200	23.4	–
Cc1cc(N(CCOS(C)(=O)=O)CCOS(C)(=O)=O)ccc1C=Nc1ccc(-c2nc(Cc3ccccc3)sc2C)cc1	> 200	0.427	–
S=c1[nH]nc(CNc2ccc(-c3n[nH]c(=S)n3-c3ccc(Cl)cc3)cc2)n1-c1ccc(Cl)cc1	> 200	31.6	–
COC(=O)C1CCCCNC(=O)CCC(NC(=O)OCc2ccccc2)C(=O)N1 (stereo not drawn) (Cbz-Glu-Lys-OMe; lactam 1-2; configuration not given here)	> 200	> 200	–
CC(C)(C)C1=CC(=C(c2ccc(-c3c4nc(c(-c5ccc(C(=C6C=C(C(C)(C)C)C(=O)C(C(C)(C)C)=C6)c6cc(C(C)(C)C)c(O)c(C(C)(C)C)c6)cc5)c5ccc([nH]5)c(-c5ccc(C(=C6C=C(C(C)(C)C)C(=O)C(C(C)(C)C)=C6)c6cc(C(C)(C)C)c(O)c(C(C)(C)C)c6)cc5)c5nc(c(-c6ccc(C(=C7C=C(C(C)(C)C)C(=O)C(C(C)(C)C)=C7)c7cc(C(C)(C)C)c(O)c(C(C)(C)C)c7)cc6)c6ccc3[nH]6)C=C5)C=C4)cc2)c2cc(C(C)(C)C)c(O)c(C(C)(C)C)c2)C=C(C(C)(C)C)C1=O	> 100	> 100	–
O=C(O)c1cc(S(=O)(=O)N=NC=C2c3ccccc3N(O)c3ccccc32)ccc1O	–	–	inactive

SMILES	EC50 [µM]	IC50 [µM]	outcome
Cc1cccc2c1c1ccc3c(c1n2C)C(=O)C=CC3=O	> 18.2	9.77	–
CCCCCCCCCCCC(=O)c1c(O)cccc1O	> 17.8	15.5	–
O=c1[nH]c(=O)n(C2OC(CO)C(O)C2O)cc1Oc1ccccc1 (stereo not drawn)	> 200	> 200	–
Cn1ncc2[nH]cnc2c1=S	> 200	26.9	–
O/N=C(\CC(O)(C(F)(F)F)C(F)(F)F)c1cccc(Cl)c1	> 200	10.7	–
CN1CN(c2ccccc2)C2(CCN(CCCN(C)c3ccc(F)cc3)CC2)C1=O	> 200	35.5	–
COc1ccc(/C(=N/O)c2ccccc2C2=Nc3ccccc3C(NCc3ccccc3)O2)cc1C (stereo not drawn)	> 200	22.4	–
FC(F)(Sc1ncccn1)c1nc2ccccc2o1	19.5	102	–
Cc1ccc(C2SC(N)=Nc3c2c(C)nn3C(=O)c2ccccc2O)cc1 (stereo not drawn)	> 20	0.603	–
C[n+]1c2ccccc2n2c3ccccc3c(NCCCN3CCOCC3)c(C#N)c21	> 20	0.676	–
COc1ccc2c(c1)CCN1C3=C(CCC3)C(=O)C[C@@H]21	–	–	inactive
O=NNc1ccc(S(=O)c2ccccc2)cn1 (stereo not drawn)	> 200	> 200	–
OC1(c2cccc3ccccc23)CCCc2cc3c(ccc4ccccc43)cc21 (stereo not drawn)	> 200	155	–
Cc1cccc(NC(=S)NC(=O)c2ccccc2)n1	> 200	> 200	–
O=C(O)/C=C/c1ccc2c(c1)CC1(Cc3ccccc3C1)C2	> 200	49	–
CC(C)N(CCCNc1c2ccccc2nc2cccc([N+](=O)[O-])c12)C(C)C	> 200	0.0631	–
Nc1ccc2c(O)cc(=O)[nH]c2n1	> 200	> 200	–
C[N+](C)(C)C=NCCCCCCN=C[N+](C)(C)C	> 200	> 200	–
Cc1occc1C(=S)Nc1ccc(Cl)c(OCC(=O)OC(C)(C)C)c1	12.9	28.2	–
